Reference: patent US20100035882A1, “INHIBITION OF PDE2A” (priority 2006, published 2010)
Several values for one entry are separate records, joined by “and”; a condition that tells them apart may be missing. Identical values can stand only once. Entries after “also recorded” stand apart in the source; their conditions may differ.

Legend:
[1] = system: PDE2A-mRNA in H9c2 rat cardiomyocytes; test: Relative expression of PDE2A-RNA in H9c2 cells after arginine-vasopressin (real-time PCR); type: cell-based; details: Vasopressin 1 μM, 72 h, triplicate mean, control 159.73
From the text: For this purpose, the rat cardiomyocyte cell line H9c2 (ATCC number: CRL-1446) was exposed to a hypertrophic stimulus by arginine-vasopressin which is expressed inter alia in an increased expressed of marker genes for cardiac hypertrophy such as ANP (atrial natriuretic peptide) and MYHCB (myosin heavy chain beta-subunit). An increased expression of the cGMP-hydrolyzing PDE2A is able to reduce the intracellular cGMP level of the cardiomyocytes and thus suppress the antihypertrophic effect of cGMP [3,4]. […]
The relative expression of PDE2A in H9c2 rat cells is measured by quantifying the mRNA using the real-time polymerase chain reaction. Compared with conventional PCR, the real-time PCR has the advantage of more accurate quantification by introducing an additional, fluorescence-labeled oligonucleotide. This so-called probe contains at the 5′ end the fluorescent dye FAM (6-carboy-fluorescein) and at the 3′ end the fluorescence quencher TAMRA (6-carboxy-tetramethylrhodamine). During the polymerase chain reaction, the fluorescent dye FAM is cleaved off the probe by the 5′-exonuclease activity of the Taq polymerase in the TaqMan PCR, and thus the previously quenched fluorescence signal is obtained. The number of the cycle at which the fluorescence intensity is about 10 standard deviations above the background fluorescence is recorded as the so-called threshold [treshold cyle (Ct value)]. […]

[2] = system: hypertrophy marker MYHCB in H9C2 rat cells; test: Relative expression of hypertrophy marker MYHCB in H9C2 rat cells after vasopressin ± BAY 60-7550 (real-time PCR); type: cell-based
Protocol: FIG. 2: Relative expression of the hypertrophy marker MYHCB in H9C2 rat cells after stimulation by vasopressin±PDE2A inhibitor BAY 60-7550.
The expression of ANP and MYHCB relative to L32 ribosomal protein in H9C2 cells after incubation with vasopressin (0.1 micromol, 1 micromal, 10 micromol) for 72 h is shown. […] (Mean relative expression rE from a duplicate determination).
The relative expression of PDE2A in H9c2 rat cells is measured by quantifying the mRNA using the real-time polymerase chain reaction. Compared with conventional PCR, the real-time PCR has the advantage of more accurate quantification by introducing an additional, fluorescence-labeled oligonucleotide. This so-called probe contains at the 5′ end the fluorescent dye FAM (6-carboy-fluorescein) and at the 3′ end the fluorescence quencher TAMRA (6-carboxy-tetramethylrhodamine). During the polymerase chain reaction, the fluorescent dye FAM is cleaved off the probe by the 5′-exonuclease activity of the Taq polymerase in the TaqMan PCR, and thus the previously quenched fluorescence signal is obtained. The number of the cycle at which the fluorescence intensity is about 10 standard deviations above the background fluorescence is recorded as the so-called threshold [treshold cyle (Ct value)].
Total RNA is isolated from the H9c2 rat cardiomyocytes from a 6-well (about 4×10^5 cells) using an RNeasy Kit (Qiagen Hilden). 1 μg portions of total RNA per tissue are reacted with 1 unit of DNase I (from Invitrogen) at room temperature for 15 min to remove contamination by genomic DNA. The Dnase I is inactivated by adding 1 μl of EDTA (25 mM) and subsequent heating at 65° C. (10 min).
Subsequently, cDNA synthesis is carried out in the same reaction mixture in accordance with the instruction for the “SUPERSCRIPT-II RT cDNA synthesis kit” (from Invitrogen), and the reaction volume is made up to 200 μl with distilled water. For the PCR, 7.5 μl of primer and probe mixture and 12.5 μl of TaqMan reaction solution (qPCR Mastermix, from Eurogentec) are added to 5 μl portions of the diluted cDNA solution. The final concentration of the primers is 300 nM in each case, and that of the probe is 150 nM. The sequence of the forward and reverse primer for the rat PDE2A is: 5′-[…]-3′ (SEQ ID NO: 3) and 5′-[…]-3′ (SEQ ID NO: 4), and the sequence of the fluorescent probe is 5′-6FAM-[…]-TAMRA-3′ (SEQ ID NO: 5). The sequence of the forward and reverse primer for r-MYHCB is: 5′-[…]-3′ (SEQ ID NO: 6) and 5′-[…]-3′ (SEQ ID NO: 7), and the sequence of the fluorescent probe is 5′-6FAM-[…]-TAMRA-3′ (SEQ ID NO: 8).
The PCR takes place on an ABI Prism SDS-7700 apparatus (from Applied Biosystems) in accordance with the manufacturer's instructions. 40 cycles are carried out in this case. The Ct (see above) which is obtained for the respective gene in the relevant cDNA corresponds to the cycle in which the fluorescence intensity of the liberated probe is about 10 standard deviations above the background signal. A lower Ct value thus means an earlier start of amplification, i.e. the original sample contains more mRNA. To compensate for any variations in the cDNA synthesis, the expression of a so-called “housekeeping gene”, which should always be expressed to the same extent irrespective of the treatment of the cells, is also analyzed in all the investigated samples. L32 ribosomal protein is used to standardize PDE2A expression in H9c2 cells. The sequence of the forward and reverse primer for rat L32 is 5′-[…]-3′ (SEQ ID NO: 9), and 5′-[…]-3′ (SEQ ID NO: 10), and the sequence of the probe is 5′-6FAM-[…]-TAMRA-3′ (SEQ ID NO: 11). The data are analyzed in the following way: the dCt value is calculated for each RNA. The dCt value is the difference between the Ct values for the candidate gene (i.e.: MYHCB or PDE2A) and the Ct value of the housekeeping gene in the respective tissue. […]

[3] = system: intracellular cGMP in H9c2 rat cardiomyocytes; test: Intracellular cGMP content in H9c2 cells after ANP stimulation (EIA); type: cell-based; details: 15 min, FIG. 3
Protocol: (§1) In order to verify that incubation of H9c2 cells with the PDE2A inhibitor BAY 60-7550 also leads to an increase in the intracellular cGMP level and thus has an antihypertrophic effect, the intracellular cGMP content was determined by EIA after stimulation of cGMP synthesis by ANP in the presence of the PDE2A inhibitor BAY 60-7550. […] To verify the in vitro findings, the antihypertrophic effect of the PDE2 inhibitor BAY 60-7550 was investigated in vivo in a mouse hypertrophy model. For this purpose, mice of the C57BL6 strain received subcutaneous administration of 2 mg/kg isoprenaline once a day and, as positive control, 10 mg/kg enalapril administered via the drinking water in addition to the isoprenaline.
FIG. 3: Change in the intracellular cGMP concentration in H9c2 rat cardiomyocytes after stimulation with ANP in the presence of various concentrations of the PDE2A inhibitor BAY 60-7550. The cGMP content in the cells after incubation with ANP and the stated dosages of the PDE2A inhibitor BAY 60-7550 for 15 min is shown.
Determination of the cGMP Content in H9c2 Cells after Preincubation with the PDE2A Inhibitor BAY 60-7550
The intracellular cGMP content in H9c2 cells was determined with the Biotrak (EIA) Immunoassay from Amersham (catalog No. RPN 226) in accordance with the manufacturer's protocol. […] The fluorescence is measured at 450/570 nm in a Tecan Spectrafluor photometer. […]

[4] = system: mice (C57b1/6 strain), isoprenaline-induced cardiac hypertrophy; test: Mouse isoprenaline hypertrophy model, heart weight/body weight ratio; type: in vivo; details: for Effect on heart weight:body weight ratio (HW:BW) (in words): with isoprenaline 2 mg/kg/d s.c.
Protocol: as §1
FIG. 4: Alteration in the heart weight compared with the body weight (HW:BW) by subcutaneous administration of isoprenaline (2 mg/kg/d) and the influence of enalapril as positive control […] in the drinking water) and of the PDE2A inhibitor BAY 60-7550. The heart weight:body weight ratio as a function of the treatment is shown.
Assay of PDE2A inhibitors for anti-hypertrophic effect in vivo:
The antihypertrophic effect of the PDE2A inhibitor BAY 60-7550 is assayed by using the so-called mouse isoprenaline model [ ]. This involves 8 mice (C57b1/6 strain) per dose group receiving subcutaneous administration of isoprenaline at a dose of 2 mg/kg/d for 5 days, while the control group receives a saline solution as vehicle control. As positive control, in addition to the isoprenaline, the ACE inhibitor enalapril was administered in a dose of 10 mg/kg/d via the drinking water to one group, while two further groups received in addition to the isoprenaline the PDE2A inhibitor BAY 60-7550 administered intraperitoneally with a dose of 10 mg/kg/d. As a measure of the degree of cardiac hypertrophy, the heart weight/body weight (HW:BW) ratio is determined after 5 d, and the relation of the effect of the substances to the effect of isoprenaline is found.

With `NC(=O)CC[C@@H]1NC(=O)[C@H](Cc2ccccc2)NC(=O)[C@H](Cc2ccc(O)cc2)NC(=O)[C@@H](N)CSSC[C@@H](C(=O)N2CCC[C@H]2C(=O)N[C@@H](CCCN=C(N)N)C(=O)NCC(N)=O)NC(=O)[C@H](CC(N)=O)NC1=O` [Vasopressin, arginine-vasopressin, reference compound] the “MW (mean rE of PDE2A)” value [1] was 613.64, the “rE (expression of MYHCB relative to L32)” value ([2]; Vasopressin 1 μM alone, 72 h, H9C2 cells) was 19.43 and 15.03 and the “MW (mean rE of MYHCB)” value ([2]; Vasopressin 1 μM alone, 72 h, duplicate mean, control 0.50) was 17.23.

`COc1ccc(Cc2nn3c(C(CCCc4ccccc4)C(C)O)nc(C)c3c(=O)[nH]2)cc1OC` (stereo not shown) [BAY 60-7550, 2-(3,4-dimethoxybenzyl)-7-[1-(1-hydroxyethyl)-4-phenylbutyl]-5-methylimidazo[5,1-f][1,2,4]triazin-4(3H)-one] was tested, and the “Effect on intracellular cGMP content (in words)” value [3] was “dose-dependently and synergistically increases the intracellular cGMP level; also recorded: dose-dependently increases the intracellular cGMP content”, the “Effect on heart weight:body weight ratio (HW:BW) (in words)” value ([4]; BAY 60-7550 10 mg/kg i.p., 5 days, two groups, FIG. 4) was “able to suppress the isoprenaline-induced increase in heart weight almost as well as the positive control enalapril; also recorded: marked reduction in the ratio of the weight of the heart to the body weight” and the “Effect on vasopressin-induced increase of hypertrophy marker gene MYHCB (in words)” value ([2]; H9c2 cells, vasopressin stimulation, FIG. 2) was “dose-dependently suppresses the induction of the hypertrophy marker MYHCB by vasopressin; also recorded: dose-dependent suppression of the increase in the hypertrophy marker gene MYHCB”. For the same compound, the “rE (expression of MYHCB relative to L32)” value ([2]; Vasopressin 1 μM + 0.1 μM BAY 60-7550, 72 h) was 9.00 and 15.89, the “MW (mean rE of MYHCB)” value ([2]; Vasopressin 1 μM + 0.1 μM BAY 60-7550, duplicate mean, vasopressin alone 17.23) was 12.44 and the “MW (mean rE of MYHCB)” value ([2]; Vasopressin 1 μM + 1 μM BAY 60-7550, duplicate mean, vasopressin alone 17.23) was 8.54. The “rE (expression of MYHCB relative to L32)” value ([2]; Vasopressin 1 μM + 10 μM BAY 60-7550, 72 h) was 4.56 and 3.01 and the “MW (mean rE of MYHCB)” value ([2]; Vasopressin 1 μM + 10 μM BAY 60-7550, duplicate mean, vasopressin alone 17.23) was 3.79.

`CCOC(=O)[C@H](CCc1ccccc1)N[C@@H](C)C(=O)N1CCC[C@H]1C(=O)O` [enalapril, reference compound] was tested, and the “Effect on heart weight:body weight ratio (HW:BW) (in words)” value ([4]; enalapril 10 mg/kg via drinking water, positive control) was “marked reduction in the ratio of the weight of the heart to the body weight”.

`CC(C)NCC(O)c1ccc(O)c(O)c1` (stereo not shown) [isoprenaline, reference compound] was tested, and the “Effect on heart weight in relation to body weight (in words)” value ([4]; isoprenaline 2 mg/kg/d s.c. alone, hypertrophic stimulus) was “increases the weight of the animal's heart in relation to the body weight”.
